From patent publication US20060189631A1, “Substituted imidazopyrimidines for the prevention and treatment of cancer” (LABORATORIOS S.A.L.V.A.T., S.A., priority 2003, published 2006)

Columns and labels:
[1] = system: human colon adenocarcinoma cell lines (HCT-116); test: Determination of cell proliferation inhibition (Sulforodamine B); format: cell-based; conditions: HCT-116, 48 hours treatment
Procedure: The inhibitory capacity of cell proliferation of the compounds was determined in two human colon adenocarcinoma cell lines (HCT-116) obtained at the ATCC (American Type Collection). The cells were seeded in 96-well plates and kept at 37° C. in a CO2 heater for 24 hours to allow cell-substrate-adhesion. Subsequently, cells were treated with the products under study at concentrations comprised between 1 and 100 μM for 48 hours. After the treatment period, the medium was removed and cells were dyed with Sulforodamine B. Finally, decolouration of the dyed cells was carried out with Tris base 10 mM and the plates were read at 493-530 nm in a plate reader. IC50 was calculated as the product concentration inducing a growth inhibition of the 50% compared with control cells not treated.

COX-2 = target: T1, COX-2 (Homo sapiens, UniProt P35354); test: COX-2 inhibition; format: biochemical
T1 sequence (P35354 18-604): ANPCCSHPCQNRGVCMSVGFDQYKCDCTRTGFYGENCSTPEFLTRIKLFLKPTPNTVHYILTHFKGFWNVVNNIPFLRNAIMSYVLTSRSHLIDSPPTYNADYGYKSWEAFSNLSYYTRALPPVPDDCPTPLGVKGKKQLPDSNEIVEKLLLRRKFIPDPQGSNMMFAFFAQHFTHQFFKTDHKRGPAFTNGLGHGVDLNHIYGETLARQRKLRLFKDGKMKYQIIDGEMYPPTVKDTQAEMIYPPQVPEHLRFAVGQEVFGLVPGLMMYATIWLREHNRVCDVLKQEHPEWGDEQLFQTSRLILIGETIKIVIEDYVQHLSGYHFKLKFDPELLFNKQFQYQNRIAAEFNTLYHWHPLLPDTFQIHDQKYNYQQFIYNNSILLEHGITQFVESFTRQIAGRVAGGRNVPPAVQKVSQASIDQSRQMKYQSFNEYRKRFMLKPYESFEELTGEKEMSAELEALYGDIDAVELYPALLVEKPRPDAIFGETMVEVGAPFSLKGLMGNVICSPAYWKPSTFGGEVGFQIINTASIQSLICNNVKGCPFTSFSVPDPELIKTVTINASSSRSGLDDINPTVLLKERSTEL

[2] = system: human colon cancer cell lines HCT-116; test: Determination of apoptosis (DNA fragmentation into nucleosomes, Cell Death Detection ELISA PLUS); format: cell-based; conditions: HCT-116, at 10 μM
Procedure: To stablish whether the antiproliferative activity of the compounds of the present invention is due to an apoptotic process, and not merely to a necrotic process, the generation of DNA fragments associated to histones (mono- and oligonucleosomes) was determined after incubation of the human colon cancer cell lines HCT-116 with the compounds of the present invention at different concentrations. DNA fragmentation into nucleosomes, which is an indicator of apoptosis phenomena, was quantified by a sandwich immunoassay using monoclonal antibodies directed against DNA and histones (Cell Death Detection ELISA^PLUS, Roche Diagnostics, cat #1920685). The quantity of fragmented DNA was expressed with the Enrichment Factor (EF) parameter, which is a coefficient of absorbance of nucleosomes liberated in the cytosol of the cells cultured in the presence of the products compared with control cells.

SMILES | IC50 [1] | IC50 (COX-2) | EF (Apoptosis induction, Enrichment Factor) [2]
CSc1ccc(-c2c(-c3ccc(Br)cc3)nc3ncccn23)cc1 [Example 13, 2-(4-Bromophenyl)-3-(4-methylsulfanylphenyl)imidazo[1,2-a]pyrimidine] | < 5 µM | > 25 µM | +++ (EF > 6)
CSc1ccc(-c2c(-c3cccc(C)c3)nc3ncccn23)cc1Br [Example 132, 3-(3-Bromo-4-methylsulfanylphenyl)-2-m-tolylimidazo[1,2-a]pyrimidine] | < 5 µM | > 25 µM | +++ (EF > 6)
COc1ccc(-c2nc3ncccn3c2-c2ccc3c(c2)C(C)(C)CCS3)cc1 [Example 244, 3-(4,4-Dimethylthiochroman-6-yl)-2-(4-methoxyphenyl)imidazo[1,2-a]pyrimidine] | < 5 µM | > 25 µM | +++ (EF > 6)
Cc1ccc(-c2nc3ncccn3c2-c2ccc(SC(C)C)c(Cl)c2)cc1 [Example 153, 3-(3-Chloro-4-isopropylsulfanylphenyl)-2-p-tolylimidazo[1,2-a]pyrimidine] | < 5 µM | > 25 µM | +++ (EF > 6)
COc1ccc(-c2nc3ncccn3c2-c2ccc(SC(C)C)cc2)cc1 [Example 151, 3-(4-Isopropylsulfanylphenyl)-2-(4-methoxyphenyl)imidazo[1,2-a]pyrimidine] | < 5 µM | > 25 µM | +++ (EF > 6)
CSc1ccc(-c2c(-c3ccc(Cl)cc3)nc3ncccn23)cc1Br [Example 136, 3-(3-Bromo-4-methylsulfanylphenyl)-2-(4-chlorophenyl)imidazo[1,2-a]pyrimidine] | < 5 µM | > 25 µM | +++ (EF > 6)
COc1ccc(-c2nc3ncccn3c2-c2ccc(SC)cc2)cc1 [Example 8, 2-(4-Methoxyphenyl)-3-(4-methylsulfanylphenyl)imidazo[1,2-a]pyrimidine] | < 5 µM | 5 to 25 µM | +++ (EF > 6)
COc1ccc(-c2nc3nc(C)ccn3c2-c2ccc(SC)c(Cl)c2)cc1 [Example 125, 3-(3-Chloro-4-methylsulfanylphenyl)-2-(4-methoxyphenyl)-7-methylimidazo[1,2-a]pyrimidine] | 5 to 25 µM | – | +++ (EF > 6)
Cc1ccc(-c2cc(C(F)(F)F)nn2-c2ccc(S(N)(=O)=O)cc2)cc1 [Celecoxib, reference compound] | > 25 µM | – | + (EF < 3)
CC1=C(CC(=O)O)c2cc(F)ccc2/C1=C\c1ccc(S(C)(=O)=O)cc1 [Exisulind, reference compound] | > 25 µM | > 25 µM | + (EF < 3)
CSc1ccc(-c2nc3ncccn3c2-c2ccc(SC(C)C)c(Cl)c2)cc1 [Example 157, 3-(3-Chloro-4-isopropylsulfanylphenyl)-2-(4-methylsulfanylphenyl)imidazo[1,2-a]pyrimidine] | < 5 µM | > 25 µM | +++ (EF > 6)

Second part, led by results:

IC50 [1] | IC50 (COX-2) | SMILES | EF (Apoptosis induction, Enrichment Factor) [2]
< 5 µM | > 25 µM | CCCSc1ccc(-c2c(-c3ccc(OC)cc3)nc3ncccn23)cc1Cl [Example 148, 3-(3-Chloro-4-propylsulfanylphenyl)-2-(4-methoxyphenyl)imidazo[1,2-a]pyrimidine] | +++ (EF > 6)
< 5 µM | > 25 µM | COc1ccc(-c2nc3ncccn3c2-c2ccc(SC)c(Cl)c2)cc1 [Example 124, 3-(3-Chloro-4-methylsulfanylphenyl)-2-(4-methoxyphenyl)imidazo[1,2-a]pyrimidine] | +++ (EF > 6)
5 to 25 µM | > 25 µM | COc1ccc(-c2nc3ncccn3c2-c2ccc([S+](C)[O-])c(Cl)c2)cc1 (stereo not drawn) [Example 189, 3-(3-Chloro-4-methanesulfinylphenyl)-2-(4-methoxyphenyl)imidazo[1,2-a]pyrimidine] | +++ (EF > 6)
5 to 25 µM | > 25 µM | CSc1ccc(-c2c(-c3ccc(F)cc3)nc3ncccn23)cc1Cl [Example 240, 3-(3-Chloro-4-methylsulfanylphenyl)-2-(4-fluorophenyl)imidazo[1,2-a]pyrimidine] | ++ (3 < EF < 6)
< 5 µM | – | CSc1ccc(-c2nc3ncccn3c2-c2ccc(SC)c(Cl)c2)cc1 [Example 86, 3-(3-Chloro-4-methylsulfanylphenyl)-2-(4-methylsulfanylphenyl)imidazo[1,2-a]pyrimidine] | +++ (EF > 6)
< 5 µM | > 25 µM | COc1ccc(-c2nc3ncccn3c2-c2ccc(SC)c(C)c2)cc1 [Example 138, 2-(4-Methoxyphenyl)-3-(3-methyl-4-methylsulfanylphenyl)imidazo[1,2-a]pyrimidine] | +++ (EF > 6)
< 5 µM | > 25 µM | CSc1ccc(-c2c(-c3ccc(Cl)cc3)nc3ncccn23)cc1Cl [Example 238, 3-(3-Chloro-4-methylsulfanylphenyl)-2-(4-chlorophenyl)imidazo[1,2-a]pyrimidine] | +++ (EF > 6)
